Test results as given in ChEMBL document CHEMBL1201862, “PubChem BioAssay data set” (2004).
Activity calls are given as the source filed them.

How the values were obtained:
[1] = system: HEK293; test: NOD1 signaling inhibitors, primary screen, cell-based, luminescence, uHTS (AID 1578); assay type: functional; details: Homo sapiens
[2] = system: HEK293; test: cells; assay type: functional, cell-based; details: Homo sapiens
[3] = system: HEK293; test: cells; assay type: functional, cell-based; details: Homo sapiens; remark: listed apart in the source
[4] = system: HEK293; test: NOD2 signaling inhibitors in MDP-stimulated cells, cell-based, uHTS, luminescence (AID 2001); assay type: functional; details: Homo sapiens
[5] = biological target: Tumor necrosis factor (Homo sapiens, UniProt P01375); test: TNFa-triggered NF-kB activation inhibitors, SAR follow-up, cell-based, revised (AID 2337); assay type: functional
Chain of Tumor necrosis factor (P01375 whole entry): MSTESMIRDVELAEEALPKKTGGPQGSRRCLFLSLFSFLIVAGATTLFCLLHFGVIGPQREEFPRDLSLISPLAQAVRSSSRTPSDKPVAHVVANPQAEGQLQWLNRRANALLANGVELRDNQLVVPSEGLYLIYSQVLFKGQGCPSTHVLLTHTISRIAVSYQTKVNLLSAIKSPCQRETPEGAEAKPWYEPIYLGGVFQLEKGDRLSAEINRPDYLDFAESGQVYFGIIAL

[6] = Luminescence Cell-Based Dose Retest to Confirm Inhibitors of Cancer Stem Cells. [Related pubchem assays (depositor defined):AID2717, AID2721]; assay type: functional; details: Homo sapiens
[7] = biological target: T1, Nucleotide-binding oligomerization domain-containing protein 1 (Homo sapiens, UniProt Q9Y239); test: NOD1 signaling inhibitors, SAR follow-up, revised (AID 2333); assay type: functional
T1 sequence (Q9Y239 whole entry): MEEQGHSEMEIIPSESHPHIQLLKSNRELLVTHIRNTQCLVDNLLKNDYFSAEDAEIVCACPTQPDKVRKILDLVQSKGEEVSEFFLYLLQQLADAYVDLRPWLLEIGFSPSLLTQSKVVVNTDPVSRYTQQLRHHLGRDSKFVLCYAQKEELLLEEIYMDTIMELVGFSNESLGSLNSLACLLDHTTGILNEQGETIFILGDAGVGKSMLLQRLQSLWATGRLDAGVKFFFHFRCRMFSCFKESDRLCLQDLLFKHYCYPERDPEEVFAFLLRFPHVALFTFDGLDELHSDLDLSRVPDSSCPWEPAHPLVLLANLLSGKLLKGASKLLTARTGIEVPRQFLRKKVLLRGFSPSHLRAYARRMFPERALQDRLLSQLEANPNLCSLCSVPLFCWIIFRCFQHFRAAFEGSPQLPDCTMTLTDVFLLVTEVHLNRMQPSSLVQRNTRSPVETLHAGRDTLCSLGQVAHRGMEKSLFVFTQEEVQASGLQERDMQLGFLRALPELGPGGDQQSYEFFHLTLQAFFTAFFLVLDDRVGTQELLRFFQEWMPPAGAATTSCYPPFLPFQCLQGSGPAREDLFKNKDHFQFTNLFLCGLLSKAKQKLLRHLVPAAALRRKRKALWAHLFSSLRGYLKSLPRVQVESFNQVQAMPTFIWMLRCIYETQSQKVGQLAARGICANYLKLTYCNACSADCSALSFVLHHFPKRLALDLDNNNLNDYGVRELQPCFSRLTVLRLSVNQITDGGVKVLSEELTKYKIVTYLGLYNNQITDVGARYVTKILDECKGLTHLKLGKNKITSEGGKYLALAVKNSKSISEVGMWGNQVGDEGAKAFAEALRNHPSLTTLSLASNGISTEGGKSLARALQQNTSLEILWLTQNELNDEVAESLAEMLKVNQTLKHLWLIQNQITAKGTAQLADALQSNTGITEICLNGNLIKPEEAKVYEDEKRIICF

[8] = biological target: Genome polyprotein (dengue virus type 2, UniProt P29990); test: Dengue-2 NS5 methyltransferase inhibitors, primary screen, biochemical, confirmation dose response (AID 588689); assay type: functional
Chain of Genome polyprotein (P29990 2492-3391 limits assumed): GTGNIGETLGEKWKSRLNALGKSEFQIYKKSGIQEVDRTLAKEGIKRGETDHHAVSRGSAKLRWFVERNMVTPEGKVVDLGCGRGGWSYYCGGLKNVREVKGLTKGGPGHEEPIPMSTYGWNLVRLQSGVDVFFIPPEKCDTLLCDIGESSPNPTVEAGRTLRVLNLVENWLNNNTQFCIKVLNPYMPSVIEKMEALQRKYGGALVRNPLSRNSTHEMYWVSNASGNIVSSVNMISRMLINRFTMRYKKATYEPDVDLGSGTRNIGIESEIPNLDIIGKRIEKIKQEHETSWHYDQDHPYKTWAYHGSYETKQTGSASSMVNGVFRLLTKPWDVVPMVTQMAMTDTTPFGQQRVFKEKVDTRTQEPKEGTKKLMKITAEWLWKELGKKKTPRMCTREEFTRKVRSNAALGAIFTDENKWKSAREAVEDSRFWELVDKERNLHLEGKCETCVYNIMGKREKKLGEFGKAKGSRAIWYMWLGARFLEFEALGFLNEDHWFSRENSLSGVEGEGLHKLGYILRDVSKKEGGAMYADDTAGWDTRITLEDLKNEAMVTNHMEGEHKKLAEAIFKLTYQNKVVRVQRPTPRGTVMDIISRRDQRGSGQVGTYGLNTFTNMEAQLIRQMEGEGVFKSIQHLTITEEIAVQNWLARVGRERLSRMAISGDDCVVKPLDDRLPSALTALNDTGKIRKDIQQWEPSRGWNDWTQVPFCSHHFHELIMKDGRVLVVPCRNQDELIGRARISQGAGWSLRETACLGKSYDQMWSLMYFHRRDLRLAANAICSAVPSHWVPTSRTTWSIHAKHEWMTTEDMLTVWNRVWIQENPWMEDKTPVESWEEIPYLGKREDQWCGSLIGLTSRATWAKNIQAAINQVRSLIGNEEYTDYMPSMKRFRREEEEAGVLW

[9] = biological target: T2, Hepatocyte nuclear factor 4-alpha (Homo sapiens, UniProt P41235); assay type: functional, cell-based;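 also: biochemical luminescence-based dose-response counterscreen measuring inhibition of HNF4 dimerization, run alongside a screen for blockers of ABHD5–perilipin-5 interaction; split luciferase complementation of HNF4 fusion proteins in cell lysate measuring dimerization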
T2 sequence (P41235 whole entry): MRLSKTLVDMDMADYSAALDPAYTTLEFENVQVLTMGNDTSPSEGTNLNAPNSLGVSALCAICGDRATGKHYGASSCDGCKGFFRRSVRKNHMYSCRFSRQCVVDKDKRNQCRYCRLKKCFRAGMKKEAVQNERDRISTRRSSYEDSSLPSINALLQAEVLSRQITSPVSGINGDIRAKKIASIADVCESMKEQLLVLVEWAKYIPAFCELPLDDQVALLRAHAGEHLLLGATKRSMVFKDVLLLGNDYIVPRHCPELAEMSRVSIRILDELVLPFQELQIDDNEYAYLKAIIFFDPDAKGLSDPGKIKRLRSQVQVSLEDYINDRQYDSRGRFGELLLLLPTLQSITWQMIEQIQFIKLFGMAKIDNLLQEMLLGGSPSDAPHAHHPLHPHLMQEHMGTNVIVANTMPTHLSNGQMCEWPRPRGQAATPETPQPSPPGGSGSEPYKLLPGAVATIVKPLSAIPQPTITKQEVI

[10] = system: HEK293; test: cells; details: Homo sapiens
[11] = biological target: T3, Aminopeptidase N (Plasmodium falciparum FcB1/Columbia, UniProt O96935); test: P. falciparum M1AAP inhibitors, biochemical, fluorogenic H-Leu-NHMec substrate, 1536-well (AID 1445); parameters: species or system Plasmodium falciparum 3D7, 3D7
T3 sequence (O96935 whole entry): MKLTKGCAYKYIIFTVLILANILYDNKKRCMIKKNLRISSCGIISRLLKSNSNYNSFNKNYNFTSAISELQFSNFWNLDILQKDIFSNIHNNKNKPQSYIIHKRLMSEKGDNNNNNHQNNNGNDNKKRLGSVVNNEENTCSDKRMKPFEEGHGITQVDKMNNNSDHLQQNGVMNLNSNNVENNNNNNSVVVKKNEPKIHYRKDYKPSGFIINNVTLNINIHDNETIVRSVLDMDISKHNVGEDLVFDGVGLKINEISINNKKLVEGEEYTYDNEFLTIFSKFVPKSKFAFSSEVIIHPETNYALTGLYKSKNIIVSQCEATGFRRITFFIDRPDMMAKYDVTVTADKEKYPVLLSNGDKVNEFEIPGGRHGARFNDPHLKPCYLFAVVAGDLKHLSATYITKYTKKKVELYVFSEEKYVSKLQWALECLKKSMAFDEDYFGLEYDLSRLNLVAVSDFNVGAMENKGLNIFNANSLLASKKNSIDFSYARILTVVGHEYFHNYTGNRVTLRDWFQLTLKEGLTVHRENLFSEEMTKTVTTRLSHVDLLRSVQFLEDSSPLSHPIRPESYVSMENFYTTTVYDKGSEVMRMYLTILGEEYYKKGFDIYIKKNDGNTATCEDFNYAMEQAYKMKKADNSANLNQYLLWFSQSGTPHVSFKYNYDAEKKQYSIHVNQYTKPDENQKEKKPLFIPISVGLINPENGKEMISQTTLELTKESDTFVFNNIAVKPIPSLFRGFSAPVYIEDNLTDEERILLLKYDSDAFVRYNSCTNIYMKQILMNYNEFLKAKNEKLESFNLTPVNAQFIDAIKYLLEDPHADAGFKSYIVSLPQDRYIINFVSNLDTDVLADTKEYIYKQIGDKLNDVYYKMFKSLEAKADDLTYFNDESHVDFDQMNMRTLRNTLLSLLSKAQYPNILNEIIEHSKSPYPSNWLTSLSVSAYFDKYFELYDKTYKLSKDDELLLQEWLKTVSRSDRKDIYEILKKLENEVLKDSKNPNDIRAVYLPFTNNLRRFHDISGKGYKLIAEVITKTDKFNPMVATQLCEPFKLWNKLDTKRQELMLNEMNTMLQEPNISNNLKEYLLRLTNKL

[12] = biological target: T4, Bifunctional protein GlmU (Mycobacterium tuberculosis, UniProt P9WMN3); test: Inhibitors of Mycobacterial Glucosamine-1-phosphate acetyl transferase (GlmU). Secondary screen.; parameters: species or system Mycobacterium tuberculosis H37Rv
T4 sequence (P9WMN3 whole entry): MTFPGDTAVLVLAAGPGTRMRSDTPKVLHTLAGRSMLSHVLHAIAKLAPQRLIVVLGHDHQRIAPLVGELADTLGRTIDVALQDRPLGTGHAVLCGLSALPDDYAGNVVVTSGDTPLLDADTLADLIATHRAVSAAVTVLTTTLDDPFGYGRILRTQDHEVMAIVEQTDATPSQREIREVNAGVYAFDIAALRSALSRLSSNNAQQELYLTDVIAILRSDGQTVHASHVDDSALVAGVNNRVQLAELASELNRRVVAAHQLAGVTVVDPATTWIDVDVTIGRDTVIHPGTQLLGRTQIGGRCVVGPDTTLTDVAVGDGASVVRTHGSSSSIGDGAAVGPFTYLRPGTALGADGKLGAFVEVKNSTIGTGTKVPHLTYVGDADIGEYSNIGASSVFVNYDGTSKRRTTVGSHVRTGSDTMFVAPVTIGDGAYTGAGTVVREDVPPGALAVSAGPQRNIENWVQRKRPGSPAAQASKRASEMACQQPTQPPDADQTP

[13] = biological target: Eukaryotic translation initiation factor 4E (Mus musculus, UniProt P63073); test: eIF4E–eIF4G protein interaction inhibitors, dose response, biochemical, TR-FRET (AID 855); assay type: functional;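 also: potency for disrupting eIF4E binding to eIF4GI seen as loss of FRET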
Chain of Eukaryotic translation initiation factor 4E (P63073 whole entry): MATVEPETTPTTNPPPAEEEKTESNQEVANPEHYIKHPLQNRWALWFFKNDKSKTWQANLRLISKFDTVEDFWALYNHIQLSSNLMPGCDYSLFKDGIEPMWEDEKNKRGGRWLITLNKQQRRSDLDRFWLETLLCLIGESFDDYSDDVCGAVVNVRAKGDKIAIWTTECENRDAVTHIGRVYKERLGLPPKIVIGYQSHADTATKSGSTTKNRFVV

[14] = biological target: T5, Mannose-6-phosphate isomerase (Homo sapiens, UniProt P34949); test: human PMI inhibitors, high substrate, primary screen, biochemical, fluorescence intensity, high mannose 6-phosphate (AID 1220)
T5 sequence (P34949 whole entry): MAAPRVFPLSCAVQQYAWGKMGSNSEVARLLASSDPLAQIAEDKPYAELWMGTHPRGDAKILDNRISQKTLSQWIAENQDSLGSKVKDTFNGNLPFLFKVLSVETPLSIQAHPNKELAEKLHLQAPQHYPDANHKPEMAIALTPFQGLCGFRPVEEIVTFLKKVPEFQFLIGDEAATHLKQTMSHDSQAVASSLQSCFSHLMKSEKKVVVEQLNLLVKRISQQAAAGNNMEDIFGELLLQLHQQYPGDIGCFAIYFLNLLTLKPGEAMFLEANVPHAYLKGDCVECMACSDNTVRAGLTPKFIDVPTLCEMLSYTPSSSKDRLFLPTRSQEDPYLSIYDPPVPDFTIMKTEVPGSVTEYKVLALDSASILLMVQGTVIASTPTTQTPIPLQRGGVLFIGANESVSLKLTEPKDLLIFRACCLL

[15] = cytotoxicity in HEK-293T cells, dose response, cytotoxicity control for BCR NF-kB inhibitor project, luminescence, B-cell screen hits (AID 489021); assay type: functional, cell-based;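 also: HEK-293T cells carrying an NF-kB luciferase reporter; cells exposed to compound for about 14 hours before viability readout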
[16] = system: H9c2; test: cells; assay type: functional, cell-based; details: Rattus norvegicus, H9c2, Myocardium;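 also: confirmatory concentration-response retest of ultra-high-throughput screening hits for modulation of myocardial damage; cell death induced by hydrogen peroxide oxidative stress; compound pretreatment for 60 min then peroxide exposure for 2 h; potency is for protecting the cells against peroxide damage rather than for killing them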
[17] = M. tuberculosis H37Rv growth inhibitors, H37Rv strain (AID 1626); assay type: functional
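For AC50 in this document: cells exposed to compound for roughly 70 hours or longer before luminescence read.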

## Oc1nc(/C=C/c2ccc(Cl)cc2Cl)cc(C(F)(F)F)n1
[1]
  EC50: 3.83 µM (active)
[2]
  IC50: 7.72 µM (active)
[3]
  IC50: > 20 µM (inactive)
[4]
  IC50: 5.9 µM (active)
[5]
  IC50: 3.75 µM (active)
[6]
  AC50: 1.49 µM (active)
[7]
  IC50: 1.74 µM (active)
[8]
  IC50: 68.2 µM (active)
[9]
  IC50: 4.57 µM (active)
[10]
  IC50: 11.9 µM (active)

## O=C1NC(=S)S/C1=C\c1coc2ccc(O)cc2c1=O
[11]
  IC50: 38.8 µM (active)
[12]
  IC50: 112 µM (active)

## Nc1nnc(SCc2ccccc2Cl)s1
[13]
  IC50: > 64 µM (inactive)

## CCC1Cc2c(nc(N)c3c(N)nc(N4CCCCC4)c(C#N)c23)O1 (configuration not stated)
[14]
  IC50: > 50 µM (not active)

## CC(C)N1C(=O)S/C(=C/c2ccc3c(c2)n(C)c(=O)n3C)C1=O
[15]
  IC50: > 80 µM (inactive)
[16]
  IC50: 32.2 µM (inactive)

## CC1(C)CC(NC(=O)c2sc3cc(Cl)ccc3c2Cl)CC(C)(C)N1
[17]
  IC50: > 100 µM (active)
